Data reported in patent publication US6610736B1, “16-Halogen-epothilone derivatives, method for producing them and their pharmaceutical use” (Schering AG, priority 1999, dated 2003).

Assays:
[1] = tested on: multi-drug-resistant NCl/ADR carcinoma cell line; test: growth inhibition of multi-drug-resistant NCl/ADR cells, crystal-violet assay; type: cell-based, human; conditions: for IC50: crystal-violet assay; for Selectivity = IC50 (NCl/ADR) : IC50 (MCF-7): ratio of IC50 NCl/ADR to MCF-7; for selectivity in multi-drug-resistant cell line NCl/ADR in comparison to epothilone B: statement on Table 2
Source text: (§1) a) IC50 values [nM] for the growth inhibition of human MCF-7 breast- and multi-drug-resistant NCl/ADR carcinoma cell lines of the epothilone derivatives with 13Z-olefins in a crystal-violet assay in comparison to epothilone D.
(§2) b) IC50 values [nM] for the growth inhibition of human MCF-7 breast- and multidrug-resistant NCl/ADR carcinoma cell lines of the epothilone derivatives with 13,14-α-epoxide in a crystal-violet assay in comparison to epothilone B.

[2] = tested on: human MCF-7 breast carcinoma cell line; test: growth inhibition of MCF-7 cells, crystal-violet assay; type: cell-based; conditions: for IC50: crystal-violet assay; for active strength in comparison to reference compound epothilone D: statement on Table 1; for active strength in comparison to reference compound epothilone B: statement on Table 2
Source text: as §1, §2

[3] = Table 2, 13,14-α-epoxides, in comparison to epothilone B
[4] = Table 1, 13Z-olefins, in comparison to epothilone D

Compound | IC50 [1, 3] [nM] | Selectivity = IC50 (NCl/ADR) : IC50 (MCF-7) ([1]; Table 2) | IC50 [2, 3] [nM] | IC50 [1, 4] [nM] | Selectivity = IC50 (NCl/ADR) : IC50 (MCF-7) ([1]; Table 1) | IC50 [2, 4] [nM] | active strength in comparison to reference compound epothilone D [2] | also measured
C/C(=C\c1csc(C)n1)[C@@H]1C[C@@H]2O[C@]2(C)CCC[C@H](C)[C@H](O)[C@@H](C)C(=O)C(C)(C)[C@@H](O)CC(=O)O1 [Epothilone B, reference compound] | 3.5 | 5.8 | 0.6 | – | – | – | – | –
C/C1=C/C[C@@H](/C(C)=C/c2csc(C)n2)OC(=O)C[C@H](O)C(C)(C)C(=O)[C@H](C)[C@@H](O)[C@@H](C)CCC1 [Epothilone D] | – | – | – | 50 | 2.2 | 23 | – | –
C/C1=C/C[C@@H](/C(F)=C/c2csc(C)n2)OC(=O)C[C@H](O)C(C)(C)C(=O)[C@H](C)[C@@H](O)[C@@H](C)CCC1 [Example 1, (4S,7R,8S,9S,13(Z),16S(Z))-4,8-Dihydroxy-16-(1-fluoro-2-(2-methyl-4-thiazolyl)ethenyl)-1-oxa-5,5,7,9,13-pentamethyl-cyclohexadec-13-ene-2,6-dione] | – | – | – | 12 | 2.8 | 4.3 | significantly higher active strength | –
Cc1nc(/C=C(\F)[C@@H]2C[C@@H]3O[C@]3(C)CCC[C@H](C)[C@H](O)[C@@H](C)C(=O)C(C)(C)[C@@H](O)CC(=O)O2)cs1 [Example 3B, (1S,3S(Z),7S,10R,11S,12S,16R)-7,11-dihydroxy-3-(1-fluoro-2-(2-methyl-4-thiazolyl)ethenyl)-8,8,10,12,16-pentamethyl-4,17-dioxabicyclo[14.1.0]heptadecane-5,9-dione] | 1.4 | 4.7 | 0.3 | – | – | – | – | selectivity in multi-drug-resistant cell line NCl/ADR in comparison to epothilone B [1]: improved selectivity; active strength in comparison to reference compound epothilone B [2]: comparable or significantly higher active strength
C/C1=C/C[C@@H](/C(Cl)=C/c2csc(C)n2)OC(=O)C[C@H](O)C(C)(C)C(=O)[C@H](C)[C@@H](O)[C@@H](C)CCC1 [Example 5, (4S,7R,8S,9S,13(Z),16S(Z))-4,8-Dihydroxy-16-(1-chloro-2-(2-methyl-4-thiazolyl)ethenyl)-1-oxa-5,5,7,9,13-pentamethyl-cyclohexadec-13-ene-2,6-dione] | – | – | – | 37 | 7.3 | 5.1 | – | –
Cc1nc(/C=C(\Cl)[C@@H]2C[C@@H]3O[C@]3(C)CCC[C@H](C)[C@H](O)[C@@H](C)C(=O)C(C)(C)[C@@H](O)CC(=O)O2)cs1 [Example 7A, (1S,3S(Z),7S,10R,11S,12S,16R)-7,11-Dihydroxy-3-(1-chloro-2-(2-methyl-4-thiazolyl)ethenyl)-8,8,10,12,16-pentamethyl-4,17-dioxabicyclo[14.1.0]heptadecane-5,9-dione] | 6 | 7.5 | 0.8 | – | – | – | – | –
C/C1=C/C[C@@H](/C(F)=C/c2csc(C)n2)OC(=O)C[C@H](O)C2(CCC2)C(=O)[C@H](C)[C@@H](O)[C@@H](C)CCC1 [Example 9] | – | – | – | 10 | 2.0 | 5 | significantly higher active strength | –
Cc1nc(C=C(F)C2CC3OC3(C)CCCC(C)C(O)C(C)C(=O)C3(CCC3)C(O)CC(=O)O2)cs1 [Example 10A, (1S,3S(Z),7S,10R,11S,12S,16R)-7,11-Dihydroxy-3-((1-fluoro)-2-(2-methyl-4-thiazolyl)ethenyl)-10,12,16-trimethyl-8,8-(1,3-trimethylene)-4,17-dioxabicyclo[14.1.0]hepta-deca-5,9-dione] | 3.9 | 1.9 | 2.1 | – | – | – | – | selectivity in multi-drug-resistant cell line NCl/ADR in comparison to epothilone B [1]: improved selectivity
CC[C@H]1C(=O)C2(CCC2)[C@@H](O)CC(=O)O[C@H](/C(F)=C/c2csc(C)n2)C[C@@H]2O[C@]2(C)CCC[C@H](C)[C@@H]1O [Example 14A, (1S,3S(Z),7S,10R,11S,12S,16R)-7,11-Dihydroxy-12,16-dimethyl-10-ethyl-3-(1-fluoro-2-(2-methyl-4-thiazolyl)ethenyl) 8,8-(1,3-trimethylene)-4,17-dioxabicyclo[14.1.0]hepta-decane-5,9-dione] | 3.5 | 7.0 | 0.5 | – | – | – | – | active strength in comparison to reference compound epothilone B [2]: comparable or significantly higher active strength
CC[C@H]1C(=O)C(C)(C)[C@@H](O)CC(=O)O[C@H](/C(F)=C/c2ccccn2)C/C=C(/C)CCC[C@H](C)[C@@H]1O [Example 17, (4S,7R,8S,9S,13Z,16S(Z))-4,8-Dihydroxy-16-(1-fluoro-2-(2-pyridyl)ethenyl)-7-ethyl-1-oxa-5,5,9,13-tetramethyl-cyclohexadec-13-ene-2,6-dione] | – | – | – | 33 | 5.4 | 6.1 | significantly higher active strength | –
CC[C@H]1C(=O)C(C)(C)[C@@H](O)CC(=O)O[C@H](/C(F)=C/c2ccccn2)C[C@@H]2O[C@]2(C)CCC[C@H](C)[C@@H]1O [Example 20A, (1S,3S(Z),7S,10R,11S,12S,16R)-7,11-Dihydroxy-10-ethyl-3-(1-fluoro-2-(2-pyridyl)ethenyl)-8,8,12,16-tetramethyl-4,17-dioxabicyclo[14.1.0]heptadecane-5,9-dione] | 4.6 | 7.6 | 0.6 | – | – | – | – | active strength in comparison to reference compound epothilone B [2]: comparable or significantly higher active strength
CC(=O)O[C@H]1C(=O)[C@@]2(C)[C@H]([C@H](OC(=O)c3ccccc3)[C@]3(O)C[C@H](OC(=O)[C@H](O)[C@@H](NC(=O)c4ccccc4)c4ccccc4)C(C)=C1C3(C)C)[C@]1(OC(C)=O)CO[C@@H]1C[C@@H]2O [Taxol, reference compound] | > 100 | >>25 | – | – | >>25 | – | – | IC50 ([1]; Homo sapiens, Table 1, 13Z-olefins, in comparison to epothilone D): > 100 nM; IC50 ([2]; Homo sapiens, MCF7, Table 1, 13Z-olefins, in comparison to epothilone D): 4 nM
(4S,7R,8S,9S,13(Z),16S(Z)-4,8-Dihydroxy-9,13-diethyl-7-ethyl-16-(1-fluoro-2-(2-methyl-4-thiazolyl)ethenyl)-1-oxa-5,5-(1,3-trimethylene)cyclohexadec-13-ene-2,6-dione [Example 13] | – | – | – | 28 | 4.8 | 5.8 | significantly higher active strength | –
